Like-named read-outs stand apart in the source and are kept apart here. Marks after values point to notes of the source that are not given here.
How the values were obtained:
[1] = cited from earlier work
[2] = cited from earlier work; remark: listed apart in the source
in vivo = experiment: in vivo
Procedure: Female C57BL/6 mice were inoculated intracranially on the right side of the brain in the right frontal lobe with mouse glioblastoma (GL261) tumor cells (≈ 2 × 10^5) in 3 µL of phosphate-buffered saline for the tumor development. Mice were observed daily for clinical signs, and any mouse meeting predefined criteria for moribund status was euthanized. Criteria for moribund sacrifice included: ≥ 20% body weight loss or severe neurological symptoms (e.g., prostration, paralysis, seizures, hemorrhage).
Mice were euthanized by CO2 asphyxiation.
Brain tissue was weighed in polypropylene tubes, then PBS was added to the tissue sample before homogenization (1:4 wt: vol).
The LC-MS/MS system included an API-6500 triple quadrupole mass spectrometer (Sciex). Data were acquired and processed using Analyst® 1.7.2 software (Sciex). An Acquity UHPLC BEH C18 analytical column (1.7-µm, 2.1 × 50 mm; Waters) was applied in sample analysis.
For olaparib, the LLQ was 5.00 ng/mL, and the HLQ was 1000 ng/mL.
First, the brain tissue partition coefficient Kp, brain was calculated using Eq. (1).
Where Css, brain is the mean steady-state total drug concentration in brain tissue, and Css, plasma is the mean steady-state total drug concentration in plasma (both measured by LC-MS/MS). […] Finally, Kp, uu, brain was calculated using Eq. (2).2 [drawing 2]

[3] = LC-MS/MS bioanalysis of plasma and brain homogenate, mouse model of brain metastasis (MDA231-BrM2-831); format: in vivo, NCr nude mice; conditions: for Kp at 2 h / Kp uu at 2 h / concentration at 2 h: female, NCr nude (CrTac:NCr-Foxn1nu), mouse, oral; for concentration at 2 h: oral once daily 5 days, niraparib 35 mg/kg or olaparib 50 mg/kg, 2 h after final dose
Description: A luciferase-transfected human breast adenocarcinoma cell line (MDA 231-BRM2-831) was used to generate a metastatic brain tumor model in female athymic nude mice. […] NCr nude mice (strain: CrTac: NCr-Foxn1^nu; female; 5–7 weeks old; Taconic Biosciences (Germantown, NY)) were used for these studies. A power analysis was completed by a statistician to determine the appropriate sample sizes for each group to measure a statistically significant. […] Control mice (n = 10) underwent a sham IC procedure (needle insertion into the ventricle without cell injection. All mice were monitored for tumor development by bioluminescence imaging (BLI) approximately once weekly for ~ 45 days, beginning 1 h after cell injection. In vivo BLI was performed at ~ 10 min post-luciferin injection (corresponding to the peak bioluminescent signal) using an IVIS Spectrum-CT system (PerkinElmer, Waltham, MA). Imaging parameters were set to automatic exposure in the Living Image software, while the binning (8) and aperture (open f-stop) remained at the default settings for all BLI acquisitions. The imaging frequency was increased to twice weekly for mice that developed brain metastases (BMs) as indicated by increased bioluminescence in the cranial region. […] The exact tumor size was not measured as an endpoint of this study. […] Two hours after the final dose, mice were euthanized by CO2 asphyxiation. At necropsy, a terminal blood sample was collected via cardia puncture, and the brains were harvested and snap-frozen by floating on liquid nitrogen. […] From each plane, serial tissue sections were collected for MALDI MSI and for H&E staining, and immunohistochemistry (IHC) staining. Tissue trimmings from between each plane were collected, homogenized, and submitted for bioanalysis in addition to the terminal plasma samples.

[4] = set-up: method as in earlier work; conditions: humans, multiple-dose oral administration; cited from earlier work
[5] = female, C57BL/6, mouse, brain tumor, oral
[6] = female, C57BL/6, mouse, contralateral normal brain, oral
[7] = female, C57BL/6, mouse, contralateral normal brain/plasma, oral
[8] = female, C57BL/6, mouse, normal brain, oral, 35 mg/kg
[9] = brain, BM mice (niraparib n = 4, olaparib n = 3), read-out: Group mean (SD) Kp, brain
[10] = brain, BM mice (niraparib n = 4, olaparib n = 3), read-out: Group mean (SD) Kp, uu, brain
[11] = brain, No BM mice (n = 3), read-out: LC-MS/MS Bulk brain tissue, mean (SD)
[12] = brain, No BM mice (n = 3), read-out: Group mean (SD) Kp, brain
[13] = brain, No BM mice (n = 3), read-out: Group mean (SD) Kp, uu, brain
[14] = brain, all mice (BM and no-BM combined), read-out: Mean Kp, brain
[15] = brain, all mice (BM and no-BM combined), read-out: Mean Kp, uu, brain
[16] = plasma, No BM mice (n = 3), read-out: LC-MS/MS Terminal plasma, mean (SD)

Structure (SMILES)	Kp at 2 h (in vivo; [5])	concentration at 24 h (in vivo; [6]) [ng/g]	Kp at 2 h [3, 9]	Kp uu at 2 h [3, 10]	concentration at 2 h [3, 11] [ng/g]	Kp at 2 h [3, 12]	Kp uu at 2 h [3, 13]	Kp at 2 h [3, 14]	Kp uu at 2 h [3, 15]	concentration at 2 h [3, 16] [ng/mL]	also measured
NC(=O)c1cccc2cn(-c3ccc([C@@H]4CCCNC4)cc3)nc12 [Niraparib]	0.893	171	0.214	0.03	658	0.171	0.024	0.193	0.026	3850	Kp, brain ([1]; P-gp knockout mice): 1.20; Kp, brain ([1]; P-gp/BCRP knockout mice): 1.46; Kp, brain ([1]; wild-type mice): 0.20; cell membrane permeability [2]: high; concentration at 24 h (in vivo; [5]): 436 ng/g; Kp at 24 h (in vivo; female, C57BL/6, mouse, brain tumor, oral, 35 mg/kg): 0.465; Kp uu at 2 h (in vivo; [7]): 0.011; Kp at 2 h (in vivo; female, C57BL/6, mouse, normal brain, oral): 0.08; Kp at 24 h (in vivo; [8]): 0.182; Kp uu at 24 h (in vivo; [8]): 0.025; overall mean Kp, uu, brain, niraparib higher than olaparib ([3]; all mice (BM and no-BM combined)): about 1.2 fold
O=C(c1cc(Cc2n[nH]c(=O)c3ccccc23)ccc1F)N1CCN(C(=O)C2CC2)CC1 [Olaparib]	0.126	8	0.102	0.047	5	0.027	0.015	0.036	0.022	226	Tmax [4]: 1 to 3 h; Kp, brain (in vivo; 2 h since dose, normal brain): 0.031; Brain tumor, mean (SD) (in vivo; 24 h since dose, n = 9, olaparib: only three of nine animals had detectable drug levels): 78 (92)^d ng/g; Kp at 2 h (in vivo; [7]): 0.031; Kp uu at 2 h (in vivo; female, C57BL/6, mouse, in vivo): 0.02

— paper PMC12480552 (Scientific Reports, 2025)
